The results in this text go back to PubChem BioAssay (NCI).

The structures appear in SMILES notation.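 Step 1: Grow cells in 96-well plates. Step 2: Expose to compound for 48 hours at 5 concentrations. Step 3: Interpolate endpoints linearly; if unreached, use highest concentration. GI50 is the concentration that inhibits growth by half. TGI: total growth inhibition.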

Some test systems named below: A498 renal; COLO 205 colon; HCT-116 colon; NCI-H226 lung; OVCAR-4 ovarian; OVCAR-8 ovarian; SNB-19 CNS; TK-10 renal; UACC-62 melanoma; SK-MEL-2 melanoma.
Assay in all cases: NCI-60 cell line screen, 48 h

In the case of `N#Cc1c(NC(=O)c2ccc(F)cc2)sc2c1CCCC2`, the GI50 in the assay with A498 renal is > 25 µM; in the assay with COLO 205 colon, > 25 µM; in the assay on HCT-116 colon, > 25000 nM; with NCI-H226 lung it was > 25 µM; in the assay with OVCAR-4 ovarian it was > 25000 nM; in the assay with OVCAR-8 ovarian, > 25 µM. Moreover, the GI50 with SNB-19 CNS, in the assay with TK-10 renal and in the assay with UACC-62 melanoma was > 25 µM in each case. In addition, the TGI with A498 renal, in the assay with COLO 205 colon, with HCT-116 colon, with NCI-H226 lung, in the assay with OVCAR-4 ovarian and with OVCAR-8 ovarian was > 25 µM each time. Moreover, the TGI in the assay on SNB-19 CNS, in the assay on TK-10 renal and in the assay with UACC-62 melanoma was > 25 µM in each case.

On to `CCN(CC)CC(C)C(=O)/C=C/c1ccc(C)cc1` (configuration not stated), for which the TGI in the assay on A498 renal is 20.6 µM; in the assay on COLO 205 colon, 3.02 µM; in the assay with HCT-116 colon it was 3.16 µM; in the assay on NCI-H226 lung it was 31.3 µM; with OVCAR-4 ovarian it was 4.26 µM; with OVCAR-8 ovarian it was 11.3 µM. The TGI in the assay with SNB-19 CNS is 30.5 µM; in the assay with TK-10 renal it was 3.69 µM; in the assay with UACC-62 melanoma it was 12.2 µM.

For `COc1cc([N+](=O)[O-])c(OC)cc1-c1nc2sc(C)cn2c1/C(N)=N/C(=N)N`, the GI50 in the assay with A498 renal was 27.3 µM; with COLO 205 colon it was > 100 µM; in the assay with HCT-116 colon, > 100000 nM; in the assay with NCI-H226 lung, 43.2 µM; in the assay with OVCAR-4 ovarian it was > 100000 nM; in the assay on OVCAR-8 ovarian it was 35.7 µM. Further, the values for the GI50 with SNB-19 CNS, in the assay on TK-10 renal and in the assay with UACC-62 melanoma were 39.4 µM, 20.3 µM and 23.8 µM, respectively. Moreover, the TGI was 69.1 µM in the assay on A498 renal; > 100 µM with COLO 205 colon; > 100 µM with HCT-116 colon; > 100 µM in the assay with NCI-H226 lung; > 100 µM in the assay on OVCAR-4 ovarian; > 100 µM with OVCAR-8 ovarian. In addition, the TGI in the assay on SNB-19 CNS is > 100 µM; in the assay with TK-10 renal it was 50.4 µM; with UACC-62 melanoma, 52.4 µM.

`CCOC(=O)C1=C(C)NC(=O)NC1CN1C(=O)c2ccccc2C1=O` (configuration not stated): the GI50 was > 100 µM with A498 renal; > 100 µM in the assay on COLO 205 colon; > 100000 nM in the assay on HCT-116 colon; > 100000 nM in the assay with OVCAR-4 ovarian; > 100 µM in the assay on OVCAR-8 ovarian; > 100000 nM with SK-MEL-2 melanoma. For the same compound, the GI50 in the assay on SNB-19 CNS, in the assay with TK-10 renal and in the assay on UACC-62 melanoma was > 100 µM each time. For the same compound, the TGI in the assay on A498 renal, in the assay with COLO 205 colon, in the assay with HCT-116 colon, in the assay with OVCAR-4 ovarian, in the assay on OVCAR-8 ovarian and in the assay with SK-MEL-2 melanoma was > 100 µM throughout. For the same compound, the TGI in the assay with SNB-19 CNS, in the assay with TK-10 renal and in the assay on UACC-62 melanoma was > 100 µM throughout.

For `CN(C)CC(=O)Nc1ccc2ncnc(Nc3ccc(Oc4cccc(C(F)(F)F)c4)c(Cl)c3)c2c1`, the GI50 is 1.62 µM in the assay with A498 renal; 1650 nM in the assay on HCT-116 colon; 1960 nM in the assay with OVCAR-4 ovarian; 3.24 µM in the assay with OVCAR-8 ovarian; 2040 nM with SK-MEL-2 melanoma; 3.34 µM in the assay on SNB-19 CNS. Also, the GI50 in the assay with TK-10 renal is 1.71 µM; in the assay on UACC-62 melanoma it was 1.91 µM. Moreover, the TGI is 4.92 µM in the assay with A498 renal; 3.03 µM in the assay with HCT-116 colon; 5.83 µM in the assay on OVCAR-4 ovarian; 13.1 µM in the assay with OVCAR-8 ovarian; 4.37 µM in the assay on SK-MEL-2 melanoma; 14.4 µM in the assay on SNB-19 CNS. Moreover, the TGI in the assay on TK-10 renal was found to be 5.03 µM; in the assay with UACC-62 melanoma, 3.69 µM.

Regarding `Cc1ccc(S(=O)(=O)N2CCN(C=S)CC2)cc1`, the TGI in the assay with A498 renal, in the assay on COLO 205 colon, in the assay with HCT-116 colon, in the assay with OVCAR-8 ovarian, in the assay on SK-MEL-2 melanoma and in the assay with SNB-19 CNS was > 100 µM throughout. The TGI with TK-10 renal and in the assay with UACC-62 melanoma was > 100 µM throughout.

In the case of `CC1=NN(C(=O)Nc2ccc(Cl)cc2)C(=O)C2CCC(=O)N12` (configuration not stated), the TGI in the assay with A498 renal, in the assay on COLO 205 colon, in the assay on HCT-116 colon, in the assay on OVCAR-4 ovarian, in the assay with OVCAR-8 ovarian and in the assay with SK-MEL-2 melanoma was > 100 µM in each case. The TGI in the assay with SNB-19 CNS, with TK-10 renal and in the assay with UACC-62 melanoma was > 100 µM each time.

On to `C/C(=N\OCC(O)CNCCSCc1ccccc1)c1ccccc1Cl` (configuration not stated), for which the TGI with A498 renal came to 31.9 µM; in the assay with COLO 205 colon it was 38.4 µM; with HCT-116 colon, 54.7 µM; in the assay with NCI-H226 lung, 35.4 µM; in the assay on OVCAR-8 ovarian it was 32 µM; with SK-MEL-2 melanoma, 62.7 µM. Further, the TGI with SNB-19 CNS is 39.7 µM; with TK-10 renal it was 35.3 µM; with UACC-62 melanoma, 34.4 µM.

Take `O=C(N/C(=C\c1cccc([N+](=O)[O-])c1)c1nc2ccccc2[nH]1)c1ccccc1`: the TGI in the assay on A498 renal, in the assay with COLO 205 colon, with HCT-116 colon, in the assay on NCI-H226 lung, with OVCAR-4 ovarian and with OVCAR-8 ovarian was > 100 µM throughout. The TGI in the assay on SK-MEL-2 melanoma, in the assay on SNB-19 CNS and with UACC-62 melanoma was > 100 µM in each case.

Take `COc1ccc(CCN(CC(=O)N(CC(N)=O)C2CCC[C@@H]2OCc2ccccc2)C(=O)CN(C(=O)CN(CCc2ccc(Cl)cc2)C(=O)CN(C(=O)CN(C)Cc2ccccc2F)[C@H](C)C2CCCCC2)[C@H](C)C2CCCCC2)cc1OC` (some centres not stated): the GI50 is 1.84 µM in the assay with A498 renal; 0.893 µM in the assay on COLO 205 colon; 1600 nM in the assay on HCT-116 colon; 1.86 µM in the assay with NCI-H226 lung; 1950 nM with OVCAR-4 ovarian; 2.82 µM in the assay with OVCAR-8 ovarian. In addition, the GI50 is 946 nM with SK-MEL-2 melanoma, 1.64 µM in the assay with SNB-19 CNS and 1.42 µM in the assay with UACC-62 melanoma. Also, the TGI in the assay with A498 renal was > 50 µM; in the assay on COLO 205 colon, 2.4 µM; with HCT-116 colon, > 50 µM; with NCI-H226 lung, 41.7 µM; in the assay with OVCAR-4 ovarian, > 50 µM; in the assay with OVCAR-8 ovarian it was > 50 µM. Also, the TGI was 2.84 µM in the assay on SK-MEL-2 melanoma, > 50 µM with SNB-19 CNS and > 50 µM with UACC-62 melanoma.
